Measured values as given in patent US20150105252A1, “SUBSTITUTED PYRAZOLES AS HERBICIDES” (E I DU PONT DE NEMOURS AND COMPANY, priority 2013, published 2015).

Key:
crabgrass, naked = experiment: Test E preemergence; format: in vivo, Digitaria nuda; details: 21 days, scale 0 to 100
Excerpt: (§1) Seeds of plant species selected from bermudagrass (Cynodon dactylon), Surinam grass (Brachiaria decumbens), crabgrass, large (large crabgrass, Digitaria sanguinalis), crabgrass, naked (naked crabgrass, Digitaria nuda), foxtail, green (green foxtail, Setaria viridis), johnsongrass (Sorghum halepense), kochia (Kochia scoparia), morningglory (pitted morningglory, Ipomoea lacunosa), nutsedge, purple (purple nutsedge, Cyperus rotundus), ragweed (common ragweed, Ambrosia elation), mustard, black (black mustard, Brassica nigra), guineagrass (Panicum maximum), dallisgrass (Paspalum dilatatum), barnyardgrass (Echinochloa crus-galli), sandbur (southern sandbur, Cenchrus echinatus), sowthistle (common sowthistle, Sonchus oleraceous), ryegrass, Italian (Italian ryegrass, Lolium multiflorum), signalgrass (broadleaf signalgrass, Brachiaria platyphylla), dayflower, VA (Virginia (VA) dayflower, Commelina virginica), bluegrass (annual bluegrass, Poa annua), quackgrass (Elytrigia repens), mallow (common mallow, Malva sylvestris), buckwheat, wild (wild buckwheat, Polygonum convolvulus), leafy spurge (Euphorbia esula), common chickweed (Stellaria media), wild poinsettia (Euphorbia heterophylla), pigweed, palmer (palmer pigweed, Amaranthus palmeri), and pigweed (redroot pigweed, Amaranthus retroflexus) were planted into a blend of loam soil and sand and treated preemergence with test chemicals formulated in a non-phytotoxic solvent mixture which included a surfactant.
(§2) Treated plants and controls were maintained in a greenhouse for 21 days, after which time all species were compared to controls and visually evaluated. Plant response ratings, summarized in Table E, are based on a scale of 0 to 100 where 0 is no effect and 100 is complete control. A dash (-) response means no test result.

johnsongrass = experiment: Test E preemergence; format: in vivo, Sorghum halepense; details: 21 days, scale 0 to 100
Excerpt: as §1, §2

guineagrass = experiment: Test E preemergence; format: in vivo, Panicum maximum; details: 21 days, scale 0 to 100
Excerpt: as §1, §2

sandbur = experiment: Test E preemergence; format: in vivo, Cenchrus echinatus; details: 21 days, scale 0 to 100
Excerpt: as §1, §2

common ragweed = experiment: Test F postemergence; format: in vivo, Ambrosia elation; details: scale 0 to 100
Excerpt: (§3) Seeds of plant species selected from corn (Zea mays), soybean (Glycine max), velvetleaf (Abutilon theophrasti), lambsquarters (Chenopodium album), wild poinsettia (Euphorbia heterophylla), pigweed, palmer (palmer pigweed, Amaranthus palmeri), common waterhemp (Amaranthus rudis), surinam grass (Brachiaria decumbens), large crabgrass (Digitaria sanguinalis), crabgrass, Brazil (Brazilian crabgrass, Digitaria horizontalis), fall panicum (Panicum dichotomiflorum), giant foxtail (Setaria faberii), green foxtail (Setaria viridis), goosegrass (Eleusine indica), johnsongrass (Sorghum halepense), common ragweed (Ambrosia elation), barnyardgrass (Echinochloa crus-galli), southern sandbur (Cenchrus echinatus), arrowleaf sida (Sida rhombifolia), Italian ryegrass (Lolium multiflorum), dayflower, VA (Virginia (VA) dayflower, Commelina virginica), field bindweed (Convolvulus arvensis), cocklebur (common cocklebur, Xanthium strumarium), morningglory (Ipomoea coccinea), nightshade (eastern black nightshade, Solanum ptycanthum), kochia (Kochia scoparia), yellow nutsedge (Cyperus esculentus), and hairy beggarticks (Bidens pilosa), were planted into a silt loam soil and treated preemergence with test chemicals formulated in a non-phytotoxic solvent mixture which included a surfactant.
(§4) At the same time, plants from these crop and weed species and also horseweed (Canada horseweed, Conyza canadensis), smartweed (ladysthumb smartweed, Polygonum persicaria), waterhemp_RES1, (ALS & Triazine resistant common waterhemp, Amaranthus rudis), and waterhemp_RES2, (ALS & HPPD resistant common waterhemp, Amaranthus rudis) were treated with postemergence applications of test chemicals formulated in the same manner. Plants ranged in height from 2 to 18 cm for postemergence treatments (1- to 4-leaf stage). Treated plants and controls were maintained in a greenhouse for 14 to 21 days, after which time all species were compared to controls and visually evaluated. Plant response ratings, summarized in Table F, are based on a scale of 0 to 100 where 0 is no effect and 100 is complete control. A dash (-) response means no test result.

barnyardgrass = experiment: Test F postemergence; format: in vivo, Echinochloa crus-galli; details: scale 0 to 100
Excerpt: as §3, §4

field bindweed = experiment: Test F postemergence; format: in vivo, Convolvulus arvensis; details: scale 0 to 100
Excerpt: as §3, §4

kochia = experiment: Test F postemergence; format: in vivo, Kochia scoparia; details: scale 0 to 100
Excerpt: as §3, §4

CCOc1cc(C(=O)NCC(F)(F)F)nn1Cc1ccnc(C(F)(F)F)c1 [Compound 104]
Plant response rating, Crabgrass, Naked (crabgrass, naked; 16 g ai/ha): 95
Plant response rating, Crabgrass, Naked (crabgrass, naked; 31 g ai/ha): 100
Plant response rating, Crabgrass, Naked (crabgrass, naked; 62 g ai/ha): 100
Plant response rating, Crabgrass, Naked (crabgrass, naked; 125 g ai/ha): 100
Plant response rating, Crabgrass, Naked (crabgrass, naked; 250 g ai/ha): 100
Plant response rating, Johnsongrass (johnsongrass; 16 g ai/ha): 95
Plant response rating, Johnsongrass (johnsongrass; 31 g ai/ha): 100
Plant response rating, Johnsongrass (johnsongrass; 62 g ai/ha): 100
Plant response rating, Johnsongrass (johnsongrass; 125 g ai/ha): 100
Plant response rating, Johnsongrass (johnsongrass; 250 g ai/ha): 100
Plant response rating, Guineagrass (guineagrass; 16 g ai/ha): 100
Plant response rating, Guineagrass (guineagrass; 31 g ai/ha): 100
Plant response rating, Guineagrass (guineagrass; 62 g ai/ha): 100
Plant response rating, Guineagrass (guineagrass; 125 g ai/ha): 100
Plant response rating, Guineagrass (guineagrass; 250 g ai/ha): 100
Plant response rating, Sandbur (sandbur; 16 g ai/ha): 70
Plant response rating, Sandbur (sandbur; 31 g ai/ha): 90
Plant response rating, Sandbur (sandbur; 62 g ai/ha): 100
Plant response rating, Sandbur (sandbur; 125 g ai/ha): 98
Plant response rating, Sandbur (sandbur; 250 g ai/ha): 100
Plant response rating, Common Ragweed (common ragweed; Postemergence, 31 g ai/ha): 40
Plant response rating, Common Ragweed (common ragweed; Postemergence, 125 g ai/ha): 70
Plant response rating, Common Ragweed (common ragweed; Postemergence, 250 g ai/ha): 98
Plant response rating, Common Ragweed (common ragweed; postemergence, 62 g ai/ha): 50
Plant response rating, Common Ragweed (common ragweed; postemergence, 500 g ai/ha): 98
Plant response rating, Barnyardgrass (barnyardgrass; Postemergence, 31 g ai/ha): 0
Plant response rating, Barnyardgrass (barnyardgrass; Postemergence, 125 g ai/ha): 30
Plant response rating, Barnyardgrass (barnyardgrass; Postemergence, 250 g ai/ha): 80
Plant response rating, Barnyardgrass (barnyardgrass; postemergence, 62 g ai/ha): 10
Plant response rating, Barnyardgrass (barnyardgrass; postemergence, 500 g ai/ha): 95
Plant response rating, Field Bindweed (field bindweed; Postemergence, 31 g ai/ha): 70
Plant response rating, Field Bindweed (field bindweed; Postemergence, 125 g ai/ha): 90
Plant response rating, Field Bindweed (field bindweed; Postemergence, 250 g ai/ha): 90
Plant response rating, Field Bindweed (field bindweed; postemergence, 62 g ai/ha): 70
Plant response rating, Field Bindweed (field bindweed; postemergence, 500 g ai/ha): 95
Plant response rating, Kochia (kochia; Postemergence, 31 g ai/ha): 75
Plant response rating, Kochia (kochia; Postemergence, 125 g ai/ha): 90
Plant response rating, Kochia (kochia; Postemergence, 250 g ai/ha): 95
Plant response rating, Kochia (kochia; postemergence, 62 g ai/ha): 80
Plant response rating, Kochia (kochia; postemergence, 500 g ai/ha): 95

CCOc1cc(C(=O)NC(C)C)nn1Cc1ccnc(C(F)(F)F)c1 [Compound 188]
Plant response rating, Common Ragweed (common ragweed; Postemergence, 31 g ai/ha): 50
Plant response rating, Common Ragweed (common ragweed; Postemergence, 125 g ai/ha): 70
Plant response rating, Common Ragweed (common ragweed; Postemergence, 250 g ai/ha): 85
Plant response rating, Common Ragweed (common ragweed; postemergence, 62 g ai/ha): 60
Plant response rating, Common Ragweed (common ragweed; postemergence, 500 g ai/ha): 98
Plant response rating, Barnyardgrass (barnyardgrass; Postemergence, 31 g ai/ha): 0
Plant response rating, Barnyardgrass (barnyardgrass; Postemergence, 125 g ai/ha): 50
Plant response rating, Barnyardgrass (barnyardgrass; Postemergence, 250 g ai/ha): 60
Plant response rating, Barnyardgrass (barnyardgrass; postemergence, 62 g ai/ha): 20
Plant response rating, Barnyardgrass (barnyardgrass; postemergence, 500 g ai/ha): 95
Plant response rating, Field Bindweed (field bindweed; Postemergence, 31 g ai/ha): 70
Plant response rating, Field Bindweed (field bindweed; Postemergence, 125 g ai/ha): 90
Plant response rating, Field Bindweed (field bindweed; Postemergence, 250 g ai/ha): 95
Plant response rating, Field Bindweed (field bindweed; postemergence, 62 g ai/ha): 70
Plant response rating, Field Bindweed (field bindweed; postemergence, 500 g ai/ha): 95
Plant response rating, Kochia (kochia; Postemergence, 31 g ai/ha): 40
Plant response rating, Kochia (kochia; Postemergence, 125 g ai/ha): 95
Plant response rating, Kochia (kochia; Postemergence, 250 g ai/ha): 90
Plant response rating, Kochia (kochia; postemergence, 62 g ai/ha): 60
Plant response rating, Kochia (kochia; postemergence, 500 g ai/ha): 95

CCOc1cc(C(=O)NC2CC2)nn1Cc1ccnc(C(F)(F)F)c1 [Compound 189]
Plant response rating, Crabgrass, Naked (crabgrass, naked; 4 g ai/ha): 40
Plant response rating, Crabgrass, Naked (crabgrass, naked; 8 g ai/ha): 95
Plant response rating, Crabgrass, Naked (crabgrass, naked; 16 g ai/ha): 100
Plant response rating, Crabgrass, Naked (crabgrass, naked; 31 g ai/ha): 100
Plant response rating, Crabgrass, Naked (crabgrass, naked; 62 g ai/ha): 100
Plant response rating, Johnsongrass (johnsongrass; 4 g ai/ha): 0
Plant response rating, Johnsongrass (johnsongrass; 8 g ai/ha): 0
Plant response rating, Johnsongrass (johnsongrass; 16 g ai/ha): 25
Plant response rating, Johnsongrass (johnsongrass; 31 g ai/ha): 100
Plant response rating, Johnsongrass (johnsongrass; 62 g ai/ha): 100
Plant response rating, Guineagrass (guineagrass; 4 g ai/ha): 30
Plant response rating, Guineagrass (guineagrass; 8 g ai/ha): 75
Plant response rating, Guineagrass (guineagrass; 16 g ai/ha): 100
Plant response rating, Guineagrass (guineagrass; 31 g ai/ha): 100
Plant response rating, Guineagrass (guineagrass; 62 g ai/ha): 100
Plant response rating, Sandbur (sandbur; 4 g ai/ha): 0
Plant response rating, Sandbur (sandbur; 8 g ai/ha): 0
Plant response rating, Sandbur (sandbur; 16 g ai/ha): 0
Plant response rating, Sandbur (sandbur; 31 g ai/ha): 20
Plant response rating, Sandbur (sandbur; 62 g ai/ha): 90
